Experimental data from the NIST ThermoML archive (doi:10.1021/je034173q).

What was measured:
[1] = Liquid, Ebulliometric method (Recirculating still)
[2] = molar heat capacity at constant pressure; settings: 101.33 kPa, Liquid, Small sample (50 mg) DSC

CCC1COC(=O)O1 (centres undefined) [1,2-butylene carbonate]
Settings | molar heat capacity at constant pressure [J/K/mol] | vapor or sublimation pressure [kPa]
[1], 397.25 K | – | 1.9
[1], 402.93 K | – | 2.44
[1], 409.65 K | – | 3.23
[1], 417.69 K | – | 4.45
[1], 424.67 K | – | 5.8
[1], 432.03 K | – | 7.57
[1], 438.31 K | – | 9.43
[1], 445.57 K | – | 12.03
[1], 453.2 K | – | 15.39
[1], 460.53 K | – | 19.28
[1], 467.68 K | – | 23.89
[1], 474.59 K | – | 29.14
[1], 481.93 K | – | 35.77
[1], 488.3 K | – | 42.38
[1], 495.04 K | – | 50.52
[1], 501.76 K | – | 59.91
[1], 508.33 K | – | 70.54
[1], 515.54 K | – | 83.68
[1], 522.74 K | – | 99.08
[2], 283.15 K | 192.75 | –
[2], 293.15 K | 195.07 | –
[2], 303.15 K | 197.4 | –
[2], 313.15 K | 199.72 | –
[2], 323.15 K | 202.04 | –
[2], 333.15 K | 205.52 | –
[2], 343.15 K | 207.85 | –
[2], 353.15 K | 210.17 | –
[2], 363.15 K | 212.49 | –
[2], 373.15 K | 214.81 | –

O=C1OCC(CO)O1 (centres undefined) [glycerine carbonate]
Settings | molar heat capacity at constant pressure [J/K/mol] | vapor or sublimation pressure [kPa]
[1], 429.91 K | – | 0.26
[1], 432.47 K | – | 0.3
[1], 434.39 K | – | 0.33
[1], 435.94 K | – | 0.36
[1], 438.9 K | – | 0.41
[1], 447.48 K | – | 0.62
[1], 449.41 K | – | 0.68
[1], 452.48 K | – | 0.78
[1], 455.61 K | – | 0.9
[2], 283.15 K | 211.38 | –
[2], 293.15 K | 213.74 | –
[2], 303.15 K | 214.92 | –
[2], 313.15 K | 216.1 | –
[2], 323.15 K | 217.28 | –
[2], 333.15 K | 218.46 | –
[2], 343.15 K | 220.82 | –
[2], 353.15 K | 223.19 | –
[2], 363.15 K | 225.55 | –
[2], 373.15 K | 226.73 | –

O=C1OCCO1 [ethylene carbonate]
Settings | molar heat capacity at constant pressure [J/K/mol] | vapor or sublimation pressure [kPa]
[1], 451.58 K | – | 15.19
[1], 456.04 K | – | 17.52
[1], 460.15 K | – | 19.94
[1], 466.22 K | – | 24.23
[1], 487.1 K | – | 44.69
[1], 493.67 K | – | 53.59
[1], 500.01 K | – | 63.34
[1], 505.5 K | – | 73.45
[2], 383.15 K | 155.87 | –
[2], 388.15 K | 156.75 | –
[2], 393.15 K | 157.63 | –
[2], 398.15 K | 158.51 | –

CC1COC(=O)O1 (centres undefined) [4-methyl-1,3-dioxolan-2-one]
Settings | molar heat capacity at constant pressure [J/K/mol] | vapor or sublimation pressure [kPa]
[1], 459.85 K | – | 24.21
[1], 465.35 K | – | 28.46
[1], 468.45 K | – | 31.24
[1], 471.75 K | – | 34.04
[1], 475.85 K | – | 38.09
[1], 478.35 K | – | 40.81
[1], 482.25 K | – | 45.44
[1], 485.05 K | – | 49.16
[1], 491.25 K | – | 57.38
[1], 494.25 K | – | 61.83
[1], 496.95 K | – | 66.33
[1], 499.45 K | – | 70.45
[1], 501.25 K | – | 73.46
[1], 504.05 K | – | 78.67
[1], 506.65 K | – | 83.64
[1], 508.15 K | – | 86.64
[1], 509.75 K | – | 89.87
[1], 511.15 K | – | 92.66
[1], 513.25 K | – | 97.17
[2], 303.15 K | 170.49 | –
[2], 313.15 K | 172.53 | –
[2], 323.15 K | 174.57 | –
[2], 333.15 K | 176.61 | –
[2], 343.15 K | 178.66 | –
[2], 353.15 K | 180.7 | –
[2], 363.15 K | 183.76 | –
[2], 373.15 K | 185.8 | –
[2], 383.15 K | 188.86 | –
[2], 393.15 K | 190.91 | –
